The values below come from ChEMBL document CHEMBL1153778, “Contact-active microbicidal gold surfaces using immobilization of quaternary ammonium thiol derivatives” (2009).

Each structure is given as a SMILES string.

What all share (format): functional
Test [1] has as its system Staphylococcus aureus. Description: Antimicrobial activity against Staphylococcus aureus ATCC 6538 on gold coated surface assessed as log reduction of colony forming units after 4 hrs.
The test system of test [2] is Staphylococcus aureus. Put plainly: Antimicrobial activity against Staphylococcus aureus ATCC 6538 on gold coated surface assessed as log reduction of colony forming units after 24 hrs.
Test [3] has as its system Staphylococcus aureus. Description: Antimicrobial activity against Staphylococcus aureus ATCC 6538 on gold coated surface assessed as bactericidal efficiency after 4 hrs.

`C[N+](C)(CCCNC(=O)CCCCCCCCCCS)Cc1ccccc1.[Cl-]`: the Activity in the test with Staphylococcus aureus [1], in the test on Staphylococcus aureus [2] and in the test on Staphylococcus aureus [3] was 0 in each case.
In the case of `C[N+](C)(C)CCCCCCCCCCCS.[Cl-]`, the Activity in the test with Staphylococcus aureus [1] worked out at 0.14; in the test with Staphylococcus aureus [2], 0; in the test on Staphylococcus aureus [3], 30.
As for `CCCCCCCCCCCC[N+](C)(C)CCCNC(=O)CCCCCCCCCCS.[Cl-]`, the values for the Activity with Staphylococcus aureus [1], with Staphylococcus aureus [2] and with Staphylococcus aureus [3] were 0.31, 0 and 51, respectively.
Taken in the same sequence, the figures for `CCCCCCCCCC[N+](C)(C)CCCCCCCCCCCS.[Cl-]` were 0.31, 0 and 51.
Taken in the same sequence, the figures for `CCCCCCCCCC[N+](C)(C)CCCNC(=O)CCCCCCCCCCS.[Cl-]` were 0.39, 0 and 67.
Taken in the same sequence, the figures for `CCCCCCCCCCCC[N+](C)(C)CCCCCCCCCCCS.[Cl-]` were 0.31, 0 and 51.
In the case of `CCCCCCCCCCCCCC[N+](C)(C)CCCNC(=O)CCCCCCCCCCS.[Cl-]`, the Activity in the test on Staphylococcus aureus [1] is 0.14; in the test with Staphylococcus aureus [2], 0; in the test on Staphylococcus aureus [3], 30.
Taken in the same sequence, the figures for `C[N+](C)(CCCCCCCCCCCS)Cc1ccccc1.[Cl-]` were 0.14, 0 and 30.
Taken in the same sequence, the figures for `CCCCCCCCCCCCCC[N+](C)(C)CCCCCCCCCCCS.[Cl-]` were 0, 0 and 0.
Taken in the same sequence, the figures for `C[N+](C)(C)CCCNC(=O)CCCCCCCCCCS.[Cl-]` were 0.14, 0 and 30.
